This is an account of results in PubChem BioAssay (NCI).

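Dose response: 5 concentrations. Exposure: 48 h. Format: 96-well plates. Endpoint: linear interpolation; highest concentration if not reached. The concentration for full growth arrest is given as TGI.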

What all share (assay): NCI anticancer screen, dose series, 48 h
Test [1] deals with HOP-92 NSCLC.
The test system of test [2] is NCI-H460 lung.
Test [3] deals with SN12C renal.
Test [4] relates to KM12 colon.
Test [5] concerns SF-295 CNS.
Test [6] deals with NCI-H23 lung.
For test [7], the system named is COLO 205 colon.
Test [8] concerns UACC-62 melanoma.
Test [9] relates to LOX IMVI melanoma.
The test system of test [10] is OVCAR-4 ovarian.

Consider `CN(C)Cc1cc(N=Nc2ccc(Cl)c(Cl)c2)ccc1O`, for which the TGI in test [1] stood at 22.3 µM; in [2], 19.8 µM; in test [3], 27.8 µM; in test [4] it was 16.5 µM; in [5], 31.9 µM; in test [6] it was 28.1 µM. Moreover, the TGI is 8.26 µM in test [7], 19.4 µM in test [8], 17.9 µM in test [9] and 20.8 µM in test [10].

`O=C1CC(O)c2c(Cl)sc(Cl)c21` (configuration not stated): the TGI is 7.89 µM in test [1]; 52.3 µM in [2]; greater than 48.6 µM in test [3]; greater than 22.7 µM in test [4]; greater than 59.3 µM in [5]; 35.6 µM in test [6]. Moreover, the TGI was determined as 14.6 µM in test [7], 31.5 µM in test [8], 5.24 µM in test [9] and 54.3 µM in test [10].

For `Cc1nnc2c3c(-c4ccccc4)c(-c4ccccc4)oc3nc(N(C)C)n12`, the TGI in test [1], in test [4], in [5], in test [6], in test [7] and in test [8] was greater than 100 µM throughout. Also, the TGI in test [9] and in [10] was greater than 100 µM in each case.

`CN(C)c1ccc(/C=C2\N=C(c3ccccc3)N(c3nc4c(Cl)cc(Cl)cc4s3)C2=O)cc1`: the TGI in [1], in test [2], in [3], in test [4], in test [5] and in test [7] was greater than 100 µM each time. Also, the TGI in test [8], in test [9] and in [10] was greater than 100 µM each time.

In the case of `COC(=O)C(Cc1ccccc1)NC(=O)CNC(=O)CSc1nnc(COc2ccc(Cl)cc2)n1-c1ccccc1` (configuration not stated), the TGI was 35.3 µM in test [1]; 32.2 µM in [2]; 32.5 µM in [3]; 35.2 µM in test [4]; 31.7 µM in test [5]; 35.6 µM in test [6]. For the same compound, the TGI worked out at 31.9 µM in test [7], 28.6 µM in test [8], 13.8 µM in test [9] and 21.7 µM in test [10].

Regarding `COc1ccc2c(c1)CC[C@@H]1[C@@H]2CC[C@]2(C)/C(=N/OCCN3CCCCC3)CC[C@@H]12`, the TGI came out at 14.4 µM in test [1]; 5.68 µM in test [2]; 17 µM in test [3]; 13.2 µM in [4]; 12.6 µM in [5]; 25 µM in test [6]. Besides, the TGI in test [7] amounted to 3.18 µM; in test [8], 3.68 µM; in test [9], 3.8 µM; in [10], 27.2 µM.

`COc1cc(C2c3cc4c(cc3OC(N3CCOCC3)C2C)OCO4)cc(OC)c1O` (configuration not stated): the TGI is greater than 65.3 µM in [1]; greater than 100 µM in test [2]; 54.3 µM in test [3]; greater than 100 µM in test [4]; 15.8 µM in test [5]; greater than 100 µM in test [6]. Moreover, the TGI was 41.9 µM in test [7], greater than 100 µM in test [8], greater than 100 µM in test [9] and greater than 100 µM in [10].

For `CC(=O)Oc1ccc2c(c1)CC[C@@H]1C2[C@@H](O[N+](=O)[O-])C[C@@]2(C)C1CC[C@@H]2O` (some centres not stated), the TGI in test [1] is greater than 100 µM; in test [2], greater than 89.1 µM; in test [3] it was greater than 100 µM; in [4], greater than 100 µM; in test [5], greater than 100 µM; in test [6], greater than 100 µM. Also, the TGI in [7] is greater than 88.7 µM; in test [8] it was greater than 100 µM; in test [9], greater than 81.2 µM; in test [10], greater than 100 µM.

For the compound `Cn1c2ccccc2n2c3nc4ccccc4nc3c(C#N)c12`, the TGI in test [1], in [2], in [3], in [4], in test [5] and in test [6] was greater than 100 µM in each case. Further, the TGI in test [7], in test [8], in [9] and in [10] was greater than 100 µM throughout.

On to `C=C1CCCCCCCCCCC1S(=O)c1ccccc1` (configuration not stated), for which the TGI in test [1] is greater than 100 µM; in [2], greater than 100 µM; in test [3] it was 55.4 µM; in test [5] it was greater than 100 µM; in test [6], greater than 100 µM; in test [7], 57.3 µM. The TGI was greater than 100 µM in [8], 91.3 µM in test [9] and greater than 100 µM in [10].

Consider `CCOC(=O)/C=C(/C(=O)OCC)n1cc(C)c(=O)n(Cc2cnnn2CCCCOC(C)=O)c1=O`, for which the TGI in [1] was 20.2 µM; in test [2] it was 71.5 µM; in test [3], greater than 100 µM; in [4] it was greater than 100 µM; in [5] it was greater than 100 µM; in test [6] it was 90.8 µM. Also, the TGI is 56.7 µM in test [7], 57.7 µM in [8], 41 µM in [9] and greater than 100 µM in test [10].

Consider `O=[N+]([O-])C(=C(NCc1ccccc1)NCc1ccccc1)C(Cl)=C(Cl)Cl`, for which the TGI was greater than 100 µM in test [1]; greater than 100 µM in [2]; greater than 100 µM in [3]; 47.7 µM in test [4]; 60.8 µM in test [5]; 96.9 µM in test [6]. For the same compound, the TGI in test [7] was 36.1 µM; in test [8], 98.7 µM; in test [9] it was 37.8 µM; in test [10], greater than 100 µM.

For `Brc1ccc2c(c1)C1=C(CO2)Cc2ccccc2O1`, the TGI in test [1] was determined as 31.5 µM; in test [3], 33 µM; in test [4] it was 37.2 µM; in [5] it was 35.4 µM; in [6], 32.5 µM; in test [7], 31.5 µM. The TGI came out at 32.2 µM in test [8], 31.1 µM in test [9] and 33.6 µM in test [10].

As to `CC[C@H]1C=CCC[C@@]2(C[C@@H]3CC[C@@H]4[C@H](C(=O)OCCCCCCCCCCCCCCCC(=O)N(CCCN)C[C@@H](O)CCN)[C@]5(CCC[C@@H](C)O5)NC(=[N+]34)N2)O1`, the TGI in test [1] was 1.01 µM; in test [2] it was 2.15 µM; in test [3], greater than 5.62 µM; in test [4], 1.58 µM; in test [5], 3.52 µM; in test [6], 2.87 µM. Moreover, the TGI in test [7] was 1.65 µM; in test [8] it was 0.239 µM; in test [9], 0.721 µM; in test [10], greater than 5.94 µM.

Take `CC1CC[C@]2(C(=O)O)CCC3(C)C(=C2[C@H]1C)C=CC1[C@@]2(C)CC[C@H](O)C(C)(C)C2CC[C@]13C` (some centres not stated): the TGI in test [1] is 43.9 µM; in [2], greater than 100 µM; in test [3], greater than 100 µM; in [4], greater than 100 µM; in test [5], 47 µM; in [6], greater than 100 µM. Also, the TGI in test [7], in test [8], in [9] and in [10] was greater than 100 µM in each case.

As for `O=C(CCCC(=O)N1CC(CCl)c2ccc([N+](=O)[O-])cc21)N1CC(CCl)c2ccc([N+](=O)[O-])cc21` (configuration not stated), the TGI in test [1], in test [2], in test [3], in [5], in test [6] and in test [7] was greater than 100 µM each time. For the same compound, the TGI in test [8], in test [9] and in test [10] was greater than 100 µM in each case.

As to `CN(C)CCOc1ccc(-c2c(Oc3ccc(Cl)cc3)c(=O)oc3ccccc23)cc1`, the TGI in test [1] is greater than 39.4 µM; in [2] it was 27.4 µM; in test [3], greater than 43.6 µM; in [4], 48.1 µM; in test [5], greater than 25.7 µM; in [6] it was 34.8 µM. The TGI is greater than 39 µM in [7], 32.1 µM in test [8], greater than 35.7 µM in test [9] and 28.1 µM in test [10].

Take `CSc1n[n+](C)cc(N)c1N`: the TGI in test [1] was 98 µM; in test [3], greater than 100 µM; in test [4], greater than 100 µM; in test [5], greater than 100 µM; in test [6], greater than 100 µM; in [7], greater than 100 µM. The TGI in test [8], in [9] and in test [10] was greater than 100 µM each time.

On to `CCN(CC)C(=O)CCCCCCCCC1CO1` (configuration not stated), for which the TGI in test [1], in [2], in test [3], in test [4], in test [5] and in test [6] was greater than 100 µM in each case. Also, the TGI in test [7], in test [8], in test [9] and in test [10] was greater than 100 µM throughout.

For the compound `CC(NCCS(=O)(=O)O)C(=O)O` (configuration not stated), the TGI in test [1], in test [2], in [3], in test [4], in test [5] and in [6] was greater than 100 µM in each case. The TGI in [7], in [8], in [9] and in test [10] was greater than 100 µM throughout.

With `COC(=O)c1c(O)ccc2c1c1c(n2C)C(=O)c2ccccc2C1=O`, the TGI in [1] is 21 µM; in test [2], greater than 100 µM; in test [3], greater than 100 µM; in test [4], greater than 100 µM; in test [5] it was 65.6 µM; in [6] it was 78.2 µM. Also, the TGI is greater than 100 µM in test [7], greater than 100 µM in [9] and 80.6 µM in [10].

For the compound `CCn1c2c(c3c(C(=O)OC)c(O)ccc31)C(=O)c1ccccc1C2=O`, the TGI in test [1] worked out at 32.8 µM; in [2] it was 27.9 µM; in [3], 29.4 µM; in test [4] it was 34.6 µM; in test [5], 47.1 µM; in [6], 48.7 µM. The TGI is 33 µM in [7], 71.6 µM in test [9] and 37.5 µM in test [10].

Regarding `Cc1nc2ccccc2n1CCc1nc2ccccc2s1`, the TGI in [1], in test [2], in test [3], in [4], in [5] and in test [6] was greater than 100 µM each time. Further, the TGI in test [7], in [8], in test [9] and in [10] was greater than 100 µM each time.

As for `COc1ccc(CNc2nc3ccccc3nc2-c2cccs2)cc1`, the TGI in test [1], in test [2], in test [4], in [5], in test [6] and in test [7] was greater than 100 µM throughout. Moreover, the figures for the TGI in [8], in [9] and in test [10] were greater than 100 µM, 43.7 µM and greater than 100 µM, respectively.

As for `c1ccc(N=NNNc2ccc(-c3nc4ccccc4[nH]3)cc2)cc1`, the TGI was greater than 100 µM in test [1]; greater than 100 µM in test [2]; 98.1 µM in test [3]; greater than 100 µM in [4]; 68 µM in test [5]; greater than 100 µM in test [6]. Further, the TGI in test [7], in test [9] and in test [10] was greater than 100 µM each time.

With `OC1CN=C2c3ccccc3C(O)(c3ccc(Cl)cc3)N2C1` (configuration not stated), the TGI was 94.6 µM in [1]; greater than 100 µM in test [2]; greater than 100 µM in [3]; greater than 100 µM in test [4]; greater than 100 µM in [6]; 37.8 µM in test [7]. Also, the TGI in test [8], in test [9] and in test [10] was greater than 100 µM in each case.

As to `COc1cccc(/C=C/C2=NN(c3cccc(S(=O)(=O)O)c3)C3(C2)SCC(=O)N3c2nc3ccccc3s2)c1` (configuration not stated), the TGI in [1], in [2], in [3], in test [4], in [6] and in test [7] was greater than 100 µM in each case. Besides, the TGI in test [8] was greater than 100 µM; in test [9], 40.5 µM; in test [10] it was greater than 100 µM.
